Data reported in patent US12714696B2, “Low dose fluralaner compositions for protection against parasitic invertebrate pest” (VIRBAC, priority 2019, dated 2026).
Values joined by “and” are separate entries in the source; they are usually repeats but may differ in a detail not shown here. Equal values may be shown once. Read-outs that look alike come from different tables or passages of the source.

Test: Pharmacokinetics after repeated oral administration of 35 μg/kg of fluralaner in dogs after feeding
Type: in vivo, beagle dogs
Conditions: for concentration at 24 h / concentration at 48 h / concentration at 72 h / concentration at 96 h / concentration at 120 h / concentration at 240 h / concentration at 360 h / concentration at 480 h: po, 35 μg/kg
Experimental: The first objective of the study was to obtain the pharmacokinetic parameters after repeated oral administration of 35 μg/kg of fluralaner in dogs, 30 to 35 minutes after feeding.
The second objective was to investigate the pharmacodynamics between the fluralaner plasmatic dose and the effectiveness against fleas. • IVP: Investigational Veterinary Product, is pure Fluralaner+DMSO (35 μg/kg on Days 0 to 3 (0.35 mL/kg)) • Control product is DMSO (0.35 mL/kg on Days 0 to 3)
On Days 0, 1, 2 and 3, all dogs assigned to group 2 received the Investigational Veterinary Product. On Days 0 to 3 all dogs in group 1 received the control product at a volume equal to the dogs in group 2. Dogs assigned to group 1 received the control product and served as Placebo controls. The quantity of Investigational Veterinary Product and control product administered was calculated according to the dog's individual body weight measured on Day −1.
Blood samples were taken from all dogs prior to Investigational Veterinary Product treatment or control product administration on Day 0 and on Days 1 (+24 hours), 2 (+48 hours), 3 (+72 hours), 4 (+96 hours), 5 (+120 hours), 10 (+240 hours), 15 (+360 hours), 20 (+480 hours), 24 (+576 hours) and Day 28 (+672 hours).
On days of administration of pre-Investigational Veterinary Product or Control Product, dogs were fed (the same dog food) approximately half of their normal daily ration 30 minutes to 35 minutes prior to administration. Food consumed by the time of administration was calculated and recorded. The remainder of their normal daily ration was fed immediately after administration.
The PK parameters of fluralaner were calculated using a non-compartmental approach.
The following rules were applied for the calculation of the PK parameters: • All the plasma concentrations, validated by the bioanalytical laboratory, were used for the PK analysis. • The actual blood sampling times were used throughout. • Concentrations below the Limit of Quantification (LOQ) value were considered as zero from time zero (pre-dose) up to the time at which the first quantifiable concentration above the LOQ value was observed. Concentrations below the LOQ value between two quantifiable concentrations were considered as missing. Trailing concentrations below the LOQ value were not used in calculations.
Cmax the observed maximum concentration in plasma measured after dosing.
tmax the time at which Cmax was apparent.
λz the terminal rate constant (λz) was estimated by log-linear regression analysis on data points visually assessed, to be on the terminal log-linear phase. For the slope of the terminal elimination phase to be accepted as reliable, the following criteria were used: • the terminal data points were apparently randomly distributed about a single straight line (on visual inspection), • a minimum of three data points, including the last measured data point and excluding Cmax, were available for the regression.
t1/2 the terminal plasma half-life (t1/2) was calculated according to the following equation: […]
AUC0-t the area under the concentration-time curve from time zero (pre-dose) to the time of last quantifiable concentration (t) was calculated using a linear trapezoidal method.
[AUC0-∞=AUC0-t+(Ct/λz)], where Ct was the observed concentration of drug for the last sample on the PK profile in which the drug was detected, and λz was as defined above.
The extrapolated area under the curve, expressed as a percentage of the total area, AUCinf, was also calculated as: Area Extra (%)=(AUC0-∞−AUC0-t)/AUC0-∞*100%.

In the case of `Cc1cc(C2=NOC(c3cc(Cl)cc(Cl)c3)(C(F)(F)F)C2)ccc1C(=O)NCC(=O)NCC(F)(F)F` (centres unmarked) [fluralaner, Fluralaner], the “fluralaner concentration levels, individual animal” value (“fluralaner concentration levels” for short) (24 h, oral 35 μg/kg Days 0-3, dogs) is reported as 16.5 ng/mL and 16.9 ng/mL (2×) and 18.1 ng/mL and 19.0 ng/mL, the “fluralaner concentration levels” value (48 h, oral 35 μg/kg Days 0-3, dogs) is reported as 27.8 ng/mL and 32.2 ng/mL and 37.2 ng/mL and 35.2 ng/mL and 40.9 ng/mL and the “fluralaner concentration levels” value (72 h, oral 35 μg/kg Days 0-3, dogs) is reported as 60.6 ng/mL and 47.9 ng/mL and 61.0 ng/mL and 42.0 ng/mL and 57.7 ng/mL. For the same compound, the “fluralaner concentration levels” value (96 h, oral 35 μg/kg Days 0-3, dogs) was 76.6 ng/mL and 91.6 ng/mL and 84.5 ng/mL and 71.8 ng/mL and 92.4 ng/mL, the “fluralaner concentration levels” value (120 h, oral 35 μg/kg Days 0-3, dogs) was 60.1 ng/mL and 63.6 ng/mL and 55.6 ng/mL and 62.9 ng/mL and 70.0 ng/mL and the “fluralaner concentration levels” value (240 h, oral 35 μg/kg Days 0-3, dogs) was 45.8 ng/mL and 34.1 ng/mL and 36.3 ng/mL and 51.6 ng/mL and 44.4 ng/mL. The “fluralaner concentration levels” value (360 h, oral 35 μg/kg Days 0-3, dogs) was 39.2 ng/mL and 39.6 ng/mL and 43.5 ng/mL and 37.4 ng/mL and 35.2 ng/mL, the “fluralaner concentration levels” value (480 h, oral 35 μg/kg Days 0-3, dogs) was 26.1 ng/mL and 17.1 ng/mL and 21.1 ng/mL and 26.6 ng/mL and 18.4 ng/mL and the “fluralaner concentration levels” value (576 h, oral 35 μg/kg Days 0-3, dogs) was 22.0 ng/mL and 14.7 ng/mL and 15.0 ng/mL and 22.2 ng/mL and 13.3 ng/mL. The “fluralaner concentration levels” value (672 h, oral 35 μg/kg Days 0-3, dogs) was 15.1 ng/mL and 9.1 ng/mL and 10.3 ng/mL and 16.0 ng/mL and 10.4 ng/mL, the steady state concentrations (after the fourth dose of 35 μg/kg per day oral) was “not reached” and the tmax (beagle, dog, plasma, 35 ug/kg, oral 35 μg/kg Days 0-3, dogs, read-out: Tmax, individual animal) was 96 h. For the same compound, the concentration at 24 h (beagle, dog, plasma, 24 h, oral 35 μg/kg Days 0-3, dogs, n=6, read-out: fluralaner concentration levels, GeoMean) was 17.3 ng/mL, the concentration at 24 h (beagle, dog, plasma, 24 h, oral 35 μg/kg Days 0-3, dogs, n=6, read-out: fluralaner concentration levels, Maximum) was 19 ng/mL and the concentration at 24 h (beagle, dog, plasma, 24 h, oral 35 μg/kg Days 0-3, dogs, n=6, read-out: fluralaner concentration levels, Mean) was 17.4 ng/mL. It also gave a concentration at 24 h (beagle, dog, plasma, 24 h, oral 35 μg/kg Days 0-3, dogs, n=6, read-out: fluralaner concentration levels, Median) of 16.9 ng/mL, a concentration at 24 h (beagle, dog, plasma, 24 h, oral 35 μg/kg Days 0-3, dogs, n=6, read-out: fluralaner concentration levels, Minimum) of 18.5 ng/mL and a concentration at 24 h (beagle, dog, plasma, 24 h, oral 35 μg/kg Days 0-3, dogs, read-out: fluralaner concentration levels, individual animal) of 16.7 ng/mL. For the same compound, the concentration at 48 h (beagle, dog, plasma, 48 h, oral 35 μg/kg Days 0-3, dogs, n=6, read-out: fluralaner concentration levels, GeoMean) was 32.8 ng/mL, the concentration at 48 h (beagle, dog, plasma, 48 h, oral 35 μg/kg Days 0-3, dogs, n=6, read-out: fluralaner concentration levels, Maximum) was 40.9 ng/mL and the concentration at 48 h (beagle, dog, plasma, 48 h, oral 35 μg/kg Days 0-3, dogs, n=6, read-out: fluralaner concentration levels, Mean) was 33.2 ng/mL. The concentration at 48 h (beagle, dog, plasma, 48 h, oral 35 μg/kg Days 0-3, dogs, n=6, read-out: fluralaner concentration levels, Median) was 33.7 ng/mL, the concentration at 48 h (beagle, dog, plasma, 48 h, oral 35 μg/kg Days 0-3, dogs, n=6, read-out: fluralaner concentration levels, Minimum) was 26.1 ng/mL and the concentration at 48 h (beagle, dog, plasma, 48 h, oral 35 μg/kg Days 0-3, dogs, read-out: fluralaner concentration levels, individual animal) was 26.1 ng/mL. The concentration at 72 h (beagle, dog, plasma, 72 h, oral 35 μg/kg Days 0-3, dogs, n=6, read-out: fluralaner concentration levels, GeoMean) was 51.7 ng/mL, the concentration at 72 h (beagle, dog, plasma, 72 h, oral 35 μg/kg Days 0-3, dogs, n=6, read-out: fluralaner concentration levels, Maximum) was 61 ng/mL and the concentration at 72 h (beagle, dog, plasma, 72 h, oral 35 μg/kg Days 0-3, dogs, n=6, read-out: fluralaner concentration levels, Mean) was 52.3 ng/mL. The concentration at 72 h (beagle, dog, plasma, 72 h, oral 35 μg/kg Days 0-3, dogs, n=6, read-out: fluralaner concentration levels, Median) was 52.8 ng/mL, the concentration at 72 h (beagle, dog, plasma, 72 h, oral 35 μg/kg Days 0-3, dogs, n=6, read-out: fluralaner concentration levels, Minimum) was 42 ng/mL and the concentration at 72 h (beagle, dog, plasma, 72 h, oral 35 μg/kg Days 0-3, dogs, read-out: fluralaner concentration levels, individual animal) was 44.6 ng/mL. The concentration at 96 h (beagle, dog, plasma, 96 h, oral 35 μg/kg Days 0-3, dogs, n=6, read-out: fluralaner concentration levels, GeoMean) was 84 ng/mL, the concentration at 96 h (beagle, dog, plasma, 96 h, oral 35 μg/kg Days 0-3, dogs, n=6, read-out: fluralaner concentration levels, Maximum) was 92.4 ng/mL and the concentration at 96 h (beagle, dog, plasma, 96 h, oral 35 μg/kg Days 0-3, dogs, n=6, read-out: fluralaner concentration levels, Mean) was 84.4 ng/mL. It also gave a concentration at 96 h (beagle, dog, plasma, 96 h, oral 35 μg/kg Days 0-3, dogs, n=6, read-out: fluralaner concentration levels, Median) of 87 ng/mL, a concentration at 96 h (beagle, dog, plasma, 96 h, oral 35 μg/kg Days 0-3, dogs, n=6, read-out: fluralaner concentration levels, Minimum) of 71.8 ng/mL and a concentration at 96 h (beagle, dog, plasma, 96 h, oral 35 μg/kg Days 0-3, dogs, read-out: fluralaner concentration levels, individual animal) of 89.4 ng/mL. It also gave a concentration at 120 h (beagle, dog, plasma, 120 h, oral 35 μg/kg Days 0-3, dogs, n=6, read-out: fluralaner concentration levels, GeoMean) of 63.8 ng/mL, a concentration at 120 h (beagle, dog, plasma, 120 h, oral 35 μg/kg Days 0-3, dogs, n=6, read-out: fluralaner concentration levels, Maximum) of 72.3 ng/mL and a concentration at 120 h (beagle, dog, plasma, 120 h, oral 35 μg/kg Days 0-3, dogs, n=6, read-out: fluralaner concentration levels, Mean) of 64.1 ng/mL. It also gave a concentration at 120 h (beagle, dog, plasma, 120 h, oral 35 μg/kg Days 0-3, dogs, n=6, read-out: fluralaner concentration levels, Median) of 63.2 ng/mL, a concentration at 120 h (beagle, dog, plasma, 120 h, oral 35 μg/kg Days 0-3, dogs, n=6, read-out: fluralaner concentration levels, Minimum) of 55.6 ng/mL and a concentration at 120 h (beagle, dog, plasma, 120 h, oral 35 μg/kg Days 0-3, dogs, read-out: fluralaner concentration levels, individual animal) of 72.3 ng/mL. For the same compound, the concentration at 240 h (beagle, dog, plasma, 240 h, oral 35 μg/kg Days 0-3, dogs, n=6, read-out: fluralaner concentration levels, GeoMean) was 43.9 ng/mL, the concentration at 240 h (beagle, dog, plasma, 240 h, oral 35 μg/kg Days 0-3, dogs, n=6, read-out: fluralaner concentration levels, Maximum) was 54.9 ng/mL and the concentration at 240 h (beagle, dog, plasma, 240 h, oral 35 μg/kg Days 0-3, dogs, n=6, read-out: fluralaner concentration levels, Mean) was 44.5 ng/mL. The concentration at 240 h (beagle, dog, plasma, 240 h, oral 35 μg/kg Days 0-3, dogs, n=6, read-out: fluralaner concentration levels, Median) was 45.1 ng/mL, the concentration at 240 h (beagle, dog, plasma, 240 h, oral 35 μg/kg Days 0-3, dogs, n=6, read-out: fluralaner concentration levels, Minimum) was 34.1 ng/mL and the concentration at 240 h (beagle, dog, plasma, 240 h, oral 35 μg/kg Days 0-3, dogs, read-out: fluralaner concentration levels, individual animal) was 54.9 ng/mL. It also gave a concentration at 360 h (beagle, dog, plasma, 360 h, oral 35 μg/kg Days 0-3, dogs, n=6, read-out: fluralaner concentration levels, GeoMean) of 39.5 ng/mL, a concentration at 360 h (beagle, dog, plasma, 360 h, oral 35 μg/kg Days 0-3, dogs, n=6, read-out: fluralaner concentration levels, Maximum) of 43.5 ng/mL and a concentration at 360 h (beagle, dog, plasma, 360 h, oral 35 μg/kg Days 0-3, dogs, n=6, read-out: fluralaner concentration levels, Mean) of 39.6 ng/mL. It also gave a concentration at 360 h (beagle, dog, plasma, 360 h, oral 35 μg/kg Days 0-3, dogs, n=6, read-out: fluralaner concentration levels, Median) of 39.4 ng/mL, a concentration at 360 h (beagle, dog, plasma, 360 h, oral 35 μg/kg Days 0-3, dogs, n=6, read-out: fluralaner concentration levels, Minimum) of 35.2 ng/mL and a concentration at 360 h (beagle, dog, plasma, 360 h, oral 35 μg/kg Days 0-3, dogs, read-out: fluralaner concentration levels, individual animal) of 42.8 ng/mL. For the same compound, the concentration at 480 h (beagle, dog, plasma, 480 h, oral 35 μg/kg Days 0-3, dogs, n=6, read-out: fluralaner concentration levels, GeoMean) was 22.1 ng/mL and the concentration at 480 h (beagle, dog, plasma, 480 h, oral 35 μg/kg Days 0-3, dogs, n=6, read-out: fluralaner concentration levels, Maximum) was 26.6 ng/mL.
